For data set [1], the system named is Hepatotoxicity. Briefly: Literature-mined compound from Fourches et al multi-species drug-induced liver injury (DILI) dataset, effect in humans. The settings on record: human.
Data set [2] has as its system Hepatotoxicity. Briefly: Literature-mined compound from Fourches et al multi-species drug-induced liver injury (DILI) dataset, effect in rodents. The settings on record: rodentia.
The test system of data set [3] is Hepatotoxicity. Briefly: Literature-mined compound from Fourches et al multi-species drug-induced liver injury (DILI) dataset, effect in non-rodents.

On to `CC(=O)O[C@H](CC(=O)[O-])C[N+](C)(C)C` [ACETYLCARNITINE], for which the Hepatotoxicity result in the data set on Hepatotoxicity [1] is listed as “no drug-induced liver injury reported”; in the data set on Hepatotoxicity [2], “drug-induced liver injury reported”; in the data set on Hepatotoxicity [3] it was “no drug-induced liver injury reported”.

Take `CCCCNC(=O)NS(=O)(=O)c1ccc(N)cc1` [CARBUTAMIDE]: the results for the Hepatotoxicity result with Hepatotoxicity [1], in the data set on Hepatotoxicity [2] and in the data set with Hepatotoxicity [3] were “no drug-induced liver injury reported”, “drug-induced liver injury reported” and “no drug-induced liver injury reported”, respectively.

As for `Nc1nc2ncc(CNc3ccc(C(=O)N[C@@H](CCC(=O)O)C(=O)O)cc3)nc2c(=O)[nH]1` [FOLIC ACID], the Hepatotoxicity result is “drug-induced liver injury reported” in the data set with Hepatotoxicity [1], “drug-induced liver injury reported” in the data set on Hepatotoxicity [2] and “no drug-induced liver injury reported” with Hepatotoxicity [3].

As to `CCc1c2c(nc3ccc(OC(=O)N4CCC(N5CCCCC5)CC4)cc13)-c1cc3c(c(=O)n1C2)COC(=O)[C@]3(O)CC` [IRINOTECAN], the Hepatotoxicity result is “drug-induced liver injury reported” with Hepatotoxicity [1], “no drug-induced liver injury reported” with Hepatotoxicity [2] and “no drug-induced liver injury reported” in the data set with Hepatotoxicity [3].

Consider `CC1=C(/C=C/C(C)=C/C=C/C(C)=C/C=C/C=C(C)/C=C/C=C(C)/C=C/C2=C(C)CCCC2(C)C)C(C)(C)CCC1` [BETA CAROTENE], for which the Hepatotoxicity entry with Hepatotoxicity [1], in the data set on Hepatotoxicity [2] and with Hepatotoxicity [3] was “drug-induced liver injury reported” throughout.

As to `CC1(C)S[C@@H]2[C@H](NC(=O)Cc3ccccc3)C(=O)N2[C@H]1C(=O)O` [PENICILLIN G], the Hepatotoxicity result in the data set on Hepatotoxicity [1], in the data set on Hepatotoxicity [2] and in the data set with Hepatotoxicity [3] was “drug-induced liver injury reported” each time.

For `CCOc1nc2cccc(C(=O)OC(C)OC(=O)OC3CCCCC3)c2n1Cc1ccc(-c2ccccc2-c2nnn[nH]2)cc1` (stereo unspecified) [CANDESARTAN CILEXETIL], the values for the Hepatotoxicity entry in the data set with Hepatotoxicity [1], with Hepatotoxicity [2] and in the data set with Hepatotoxicity [3] were “drug-induced liver injury reported”, “drug-induced liver injury reported” and “no drug-induced liver injury reported”, respectively.

On to `COc1ccc(-c2cc(=S)ss2)cc1` [ANETHOLTRITHION], for which the Hepatotoxicity result in the data set on Hepatotoxicity [1] is listed as “no drug-induced liver injury reported”; in the data set with Hepatotoxicity [2], “drug-induced liver injury reported”; in the data set with Hepatotoxicity [3] it was “no drug-induced liver injury reported”.

In the case of `CO/N=C(\C(=O)N[C@@H]1C(=O)N2C(C(=O)O)=C(CSc3nc(=O)c(=O)[nH]n3C)CS[C@H]12)c1csc(N)n1` [CEFTRIAXONE], the Hepatotoxicity result in the data set with Hepatotoxicity [1], in the data set on Hepatotoxicity [2] and with Hepatotoxicity [3] was “drug-induced liver injury reported” throughout.

For the molecule `CC(C)OC(=O)C(C(=O)OC(C)C)=C1SC=CS1` [MALOTILATE], the Hepatotoxicity entry in the data set on Hepatotoxicity [1] was “drug-induced liver injury reported”; in the data set with Hepatotoxicity [2] it was “drug-induced liver injury reported”; in the data set with Hepatotoxicity [3] it was “no drug-induced liver injury reported”.

LACTOSE, ANHYDROUS: the Hepatotoxicity result in the data set on Hepatotoxicity [1] is given as “no drug-induced liver injury reported”; in the data set with Hepatotoxicity [2] it was “drug-induced liver injury reported”; in the data set with Hepatotoxicity [3], “no drug-induced liver injury reported”.

`OCC(CO)N[C@H]1C[C@](O)(CO)[C@@H](O)[C@H](O)[C@H]1O` [VOGLIBOSE]: the values for the Hepatotoxicity result with Hepatotoxicity [1], in the data set with Hepatotoxicity [2] and in the data set with Hepatotoxicity [3] were “drug-induced liver injury reported”, “drug-induced liver injury reported” and “no drug-induced liver injury reported”, respectively.

Take `O=C(NCCO[N+](=O)[O-])c1cccnc1` [NICORANDIL]: the Hepatotoxicity entry is “no drug-induced liver injury reported” in the data set with Hepatotoxicity [1], “drug-induced liver injury reported” with Hepatotoxicity [2] and “no drug-induced liver injury reported” with Hepatotoxicity [3].

Regarding `C#C[C@]1(O)CC[C@H]2[C@@H]3CCC4=CCCC[C@@H]4[C@H]3C(=C)C[C@@]21CC` [DESOGESTREL], the Hepatotoxicity entry in the data set with Hepatotoxicity [1] is reported as “drug-induced liver injury reported”; in the data set with Hepatotoxicity [2] it was “no drug-induced liver injury reported”; with Hepatotoxicity [3] it was “no drug-induced liver injury reported”.

Regarding `N[C@@H](Cc1c[nH]c2ccccc12)C(=O)O` [TRYPTOPHAN], the Hepatotoxicity entry is recorded as “no drug-induced liver injury reported” in the data set with Hepatotoxicity [1], “drug-induced liver injury reported” in the data set on Hepatotoxicity [2] and “no drug-induced liver injury reported” with Hepatotoxicity [3].

As for DALTEPARIN SODIUM, the Hepatotoxicity entry is “no drug-induced liver injury reported” in the data set with Hepatotoxicity [1], “drug-induced liver injury reported” in the data set on Hepatotoxicity [2] and “no drug-induced liver injury reported” in the data set on Hepatotoxicity [3].

On to `CCC[C@@H]1C[C@@H](C(=O)N[C@@H]([C@H]2O[C@H](SC)[C@H](O)[C@@H](O)[C@H]2O)[C@H](C)Cl)N(C)C1` [CLINDAMYCIN], for which the results for the Hepatotoxicity result with Hepatotoxicity [1], in the data set on Hepatotoxicity [2] and in the data set on Hepatotoxicity [3] were “drug-induced liver injury reported”, “no drug-induced liver injury reported” and “no drug-induced liver injury reported”, respectively.

As for `Nc1c(Br)cc(Br)cc1CN[C@H]1CC[C@H](O)CC1` [AMBROXOL], the Hepatotoxicity entry in the data set on Hepatotoxicity [1] is on record as “no drug-induced liver injury reported”; in the data set on Hepatotoxicity [2] it was “drug-induced liver injury reported”; in the data set with Hepatotoxicity [3], “no drug-induced liver injury reported”.

`CN1C(=O)CCS(=O)(=O)C1c1ccc(Cl)cc1` (stereo unspecified) [CHLORMEZANONE]: the Hepatotoxicity entry in the data set with Hepatotoxicity [1] was “drug-induced liver injury reported”; in the data set on Hepatotoxicity [2], “no drug-induced liver injury reported”; with Hepatotoxicity [3], “no drug-induced liver injury reported”.

`O=C1NC(=O)C(c2ccccc2)(c2ccccc2)N1` [PHENYTOIN]: the Hepatotoxicity result in the data set on Hepatotoxicity [1] (Liver), with Hepatotoxicity [2] (Liver) and in the data set on Hepatotoxicity [3] (Liver) was “drug-induced liver injury reported” each time.

Take `CC(C)(C)NC(=O)[C@@H]1C[C@@H]2CCCC[C@@H]2CN1C[C@@H](O)[C@H](Cc1ccccc1)NC(=O)[C@H](CC(N)=O)NC(=O)c1ccc2ccccc2n1`: the Hepatotoxicity result is recorded as “drug-induced liver injury reported” in the data set on Hepatotoxicity [1] (Liver), “no drug-induced liver injury reported” in the data set on Hepatotoxicity [2] (Liver) and “no drug-induced liver injury reported” with Hepatotoxicity [3] (Liver).

Turning to `O=C(O)COCCN1CCN(C(c2ccccc2)c2ccc(Cl)cc2)CC1` (stereo unspecified) [CETIRIZINE], the Hepatotoxicity entry with Hepatotoxicity [1] (Liver) is “drug-induced liver injury reported”; with Hepatotoxicity [2] (Liver), “no drug-induced liver injury reported”; with Hepatotoxicity [3] (Liver), “no drug-induced liver injury reported”.

Take `O=P(O)(O)OC[C@H]1O[C@@](O)(COP(=O)(O)O)[C@@H](O)[C@@H]1O` [FRUCTOSE 1,6-DIPHOSPHATE]: the Hepatotoxicity result is on record as “drug-induced liver injury reported” in the data set on Hepatotoxicity [1], “drug-induced liver injury reported” with Hepatotoxicity [2] and “no drug-induced liver injury reported” in the data set with Hepatotoxicity [3].

For `CN1C(C(=O)Nc2ccccn2)=C(O)c2ccccc2S1(=O)=O` [PIROXICAM], the figures for the Hepatotoxicity result in the data set with Hepatotoxicity [1], with Hepatotoxicity [2] and in the data set on Hepatotoxicity [3] were “drug-induced liver injury reported”, “drug-induced liver injury reported” and “no drug-induced liver injury reported”, respectively.

Consider `CO/N=C(\C(=O)N[C@@H]1C(=O)N2C(C(=O)O)=C(COC(C)=O)CS[C@H]12)c1csc(N)n1` [CEFOTAXIME], for which the Hepatotoxicity entry was “drug-induced liver injury reported” with Hepatotoxicity [1], “no drug-induced liver injury reported” in the data set on Hepatotoxicity [2] and “no drug-induced liver injury reported” in the data set with Hepatotoxicity [3].

Regarding `CN(CCCN1c2ccccc2CCc2ccccc21)CC(=O)c1ccc(Cl)cc1` [LOFEPRAMINE], the Hepatotoxicity result in the data set with Hepatotoxicity [1] is “drug-induced liver injury reported”; in the data set with Hepatotoxicity [2], “no drug-induced liver injury reported”; with Hepatotoxicity [3], “no drug-induced liver injury reported”.

With `Cc1cccc(Nc2ccccc2C(=O)O)c1C` [MEFENAMIC ACID], the values for the Hepatotoxicity entry in the data set on Hepatotoxicity [1] (Liver), in the data set on Hepatotoxicity [2] (Liver) and in the data set with Hepatotoxicity [3] (Liver) were “drug-induced liver injury reported”, “drug-induced liver injury reported” and “no drug-induced liver injury reported”, respectively.

As for `NCCCC[C@H](NC(=O)[C@@H]1CCCN1C(=O)[C@@H]1CSSC[C@H](NC(=O)CNC(=O)CNC(=O)CN)C(=O)N[C@@H](Cc2ccc(O)cc2)C(=O)N[C@@H](Cc2ccccc2)C(=O)N[C@@H](CCC(N)=O)C(=O)N[C@@H](CC(N)=O)C(=O)N1)C(=O)NCC(N)=O` [TERLIPRESSIN], the results for the Hepatotoxicity result in the data set with Hepatotoxicity [1], in the data set with Hepatotoxicity [2] and in the data set on Hepatotoxicity [3] were “drug-induced liver injury reported”, “no drug-induced liver injury reported” and “drug-induced liver injury reported”, respectively.

As to `CC(COc1ccccc1)N(CCCl)Cc1ccccc1` (stereo unspecified) [PHENOXYBENZAMINE], the Hepatotoxicity entry in the data set on Hepatotoxicity [1] is “no drug-induced liver injury reported”; with Hepatotoxicity [2], “drug-induced liver injury reported”; in the data set with Hepatotoxicity [3], “no drug-induced liver injury reported”.

With `CC(C)Nc1ncccn1.O=P(O)(O)O` [ISAXONINE PHOSPHATE], the values for the Hepatotoxicity entry in the data set with Hepatotoxicity [1], with Hepatotoxicity [2] and with Hepatotoxicity [3] were “drug-induced liver injury reported”, “no drug-induced liver injury reported” and “no drug-induced liver injury reported”, respectively.

As for `CNC[C@H](O)c1ccc(O)c(O)c1` [EPINEPHRINE], the Hepatotoxicity entry with Hepatotoxicity [1] (Liver), in the data set with Hepatotoxicity [2] (Liver) and in the data set with Hepatotoxicity [3] (Liver) was “drug-induced liver injury reported” in each case.

Regarding `CC(=O)Oc1c(C)c(C)c2c(c1C)CCC(C)(CCC[C@H](C)CCC[C@H](C)CCCC(C)C)O2` (stereo partly specified) [TOCOPHEROL ACETATE], the Hepatotoxicity result with Hepatotoxicity [1] was “no drug-induced liver injury reported”; in the data set with Hepatotoxicity [2] it was “drug-induced liver injury reported”; in the data set with Hepatotoxicity [3], “no drug-induced liver injury reported”.

The values above are taken from ChEMBL document CHEMBL1697731, “Cheminformatics analysis of assertions mined from literature that describe drug-induced liver injury in different species” (Chem Res Toxicol, 2010).
